Like-named read-outs stand apart in the source and are kept apart here. Strand notation (5' to 3'): a small letter for the sugar, then the base; units joined by * are phosphorothioate-linked, units joined directly phosphodiester-linked; [ ] holds rarer units or linkages, { } end groups; capitals alone tell only the bases. d = 2'-deoxy (DNA)
How the values were obtained:
[1] = system: p53; assay: Nuclear p53 level by immunofluorescence staining with Pab1801; assay type: cell-based, human; conditions: MCF-7 cells, 200 nM, 20 hr
[2] = system: MDM2 mRNA; assay: Northern blot of MDM2 mRNA in JAR cells; assay type: cell-based, human; conditions: 200 nM, 18 h
Experimental: JAR cells were treated with 200 nM of antisense oligonucleotide AS5 (SEQ ID NO:28) with no oligonucleotide, with 200 nM of control oligonucleotide M4 (SEQ ID NO:5). After 18 hours, the treated cells were harvested and RNA was purified and quantitated according to standard methods. (see e.g., Current Protocols in Molecular Biology, John Wiley & Sons Inc. (1995)). Twenty μg of total RNA were run on a 1% agarose denaturing gel. MDM2 mRNA was detected by hybridization using an EcoRI-NcoI fragment specific for the human MDM2 cDNA between nucleotides 310-1633. The filter was then stripped and reprobed with a 1.2 kb fragment, which is a full length human GAPDH cDNA to normalize values on the basis of loading variations, according to standard methods.

[3] = system: tumor cell lines; conditions: H1299 cells that lack p53; cited from earlier work
[4] = system: JAR cells; assay: Induction of apoptosis / cell death in JAR cells; assay type: cell-based, human; conditions: 400 nM
Experimental: JAR cells (ATCC) were grown in DMEM medium supplemented with 1% FBS according to standard cell culture techniques. Cells were then treated for 30 hours with growth medium containing 400 nM of either antisense oligonucleotide AS5 (SEQ ID NO:28) complementary to a portion of MDM2-encoding RNA or control oligonucleotide M4 (SEQ ID NO:5), and 7 μg/ml lipofectin (Gibco BRL Paisley, UK). Treated cells were then photographed using a phase contrast microscope.
JAR cells were treated for 24 hours as described in Example 6. Floating cells were harvested and chromosomal DNA was extracted according to standard techniques (Liu et al., Cell 86:147-157 (1996)). Purified DNA was then analyzed by agarose gel electrophoresis on a 2% agarose gel. Following electrophoresis the gel was stained with 0.5 μg/ml ethidium bromide.

[5] = system: p21/WAF1; conditions: optimal concentration 200 nM; cited from earlier work
[6] = system: MDM2; conditions: JAR and SJSA cells, 100-400 nM, Lipofectin; cited from earlier work
[7] = system: tumor cell lines; assay: Cell death / apoptosis in other cell lines; assay type: cell-based, human; conditions: H1299 cells (lack p53)
[8] = system: JAR-TK-luc and H1299-BP100-luc cells; assay: Control luciferase reporters in JAR-TK-luc and H1299-BP100-luc cells; assay type: cell-based, human
Experimental: JAR cells stably transfected with a luciferase reporter driven by the thymidine kinase gene promoter (JAR-TK-luc) and H1299 cells containing no p53 that had been stably transfected with BP100-luciferase (H1299-BP1000-luc) were also tested. […] Similar results were also observed using AS5 in osteosarcoma SJSA cells (data not shown).

[9] = system: MDM2; assay: MDM2 protein level by immunoprecipitation/Western blot in oligonucleotide-treated cells; assay type: cell-based, human; conditions: JAR cells, 18 h, Lipofectin 7 μg/ml, Western blot (FIG. 2A)
[10] = system: p53-MDM2 complex; assay: Co-immunoprecipitation of p53-MDM2 complex in JAR cells; assay type: cell-based, human
From the text: Protein lysates from JAR cells treated with antisense oligonucleotides as described in Example 1 were immunoprecipitated with anti-p53 monoclonal antibody Pab421 (FIGS. 4A and 4B) (Harlow et al. J. Virol. 39:861-869 (1981)) or with polyclonal antibody 2A10 (panel C) according to the methods described in Example 1. The gel was then transferred onto an Immobilon P membrane (Millipore, Bedford, Mass.) to detect MDM2 co-precipitates.

[11] = system: JAR cells; conditions: cited from earlier work
[12] = system: p21/WAF1; assay: p21/WAF1 induction by Western blot in JAR cells; assay type: cell-based, human; conditions: 200 nM, relative to control-treated cells
Experimental: To assess the ability of the oligonucleotides of the invention to induce the expression of a p53-inducible gene, p21/WAF1 levels were examined in oligonucleotide-treated JAR cells. Total protein was purified from control oligonucleotide-treated cells and from antisense oligonucleotide-treated cells (200 nM oligonucleotide AS5) as described in Example 1. Equal amounts of purified total protein were immunoprecipitated and analyzed by Western blotting carried out for MDM2 detection using a polyclonal rabbit anti-human p21/WAF1 serum. Following hybridization, the blots were exposed to XAR film (Eastman Kodak, Rochester, N.Y.) and the autoradiograms are quantitated by phosphoroimaging.

[13] = system: p53; assay: p53-responsive BP100-luciferase reporter in JAR cells; assay type: cell-based, human

Substance: AS5: anti-MDM2 antisense PS-oligo SEQ ID NO:28, 5′-GATCACTCCCACCTTCAAGG-3′ (DNA dG*dA*dT*dC*dA*dC*dT*dC*dC*dC*dA*dC*dC*dT*dT*dC*dA*dA*dG*dG)
- nuclear p53 staining [1]: similar, but weaker
- increase of MDM2 mRNA [2]: 2.5 fold
- molecular weight of the MDM2 mRNA band [2]: slight decrease in the molecular weight of the MDM2 mRNA band
- apoptosis [3]: did not cause visible apoptosis
- chromosomal DNA cleavage in floating cells ([4]; 24 h, agarose gel): nucleosomal-sized low molecular weight bands characteristic of apoptosis
- cell death / apoptosis morphology ([4]; 30 h, Lipofectin): induced significant cell death
- induction of p21 expression [5]: up to 6.6 fold
- decrease of MDM2 protein levels [6]: 3-5 fold
- apoptosis [7]: did not cause visible apoptosis
- activation of reporter gene in control cells [8]: did not activate the reporter gene
- inhibition of MDM2 expression [9]: 3-5 fold
- total p53 levels ([10]; JAR cells (FIG. 4A)): did not change
- amount of MDM2 co-precipitated with p53 ([10]; JAR cells (FIG. 4B)): reduced
- apoptosis [11]: significant increase in the levels of apoptosis
- induction of p21/WAF1 [12]: up to 6.6 fold
- induction of p53 activity among the initial antisense oligonucleotides tested [13]: most effective
- activation of p53-responsive reporter expression ([13]; JAR BP100-luc, 200 nM, 24 h): 7 fold
- activation of the p53 reporter ([13]; JAR BP100-luc, 48 h, AS5 200 nM, CPT alone, AS5 alone or co-incubation): 17 fold
